Tests used:
E. coli = assay: Time kill test (rapid germicidal activity) against E. coli; type: cell-based, Escherichia coli; details: 2% active aqueous solution
Description: (§1) a) Determination of Rapid Germicidal (Time Kill) Activity of Antibacterial Products. The activity of antibacterial compositions was measured by the time kill method, whereby the survival of challenged organisms exposed to an antibacterial test composition is determined as a function of time. In this test, a diluted aliquot of the composition is brought into contact with a known population of test bacteria for a specified time period at a specified temperature. The test composition is neutralized at the end of the time period, which arrests the antibacterial activity of the composition. The percent or, alternatively, log reduction from the original bacteria population is calculated. In general, the time kill method is known to those skilled in the art. The composition can be tested at any concentration from 0-100%. The choice of which concentration to use is at the discretion of the investigator, and suitable concentrations are readily determined by those skilled in the art. […] The test sample is placed in a sterile 250 ml beaker equipped with a magnetic stirring bar and the sample volume is brought to 100 ml, if needed, with sterile deionized water. All testing is performed in triplicate, the results are combined, and the average log reduction is reported. The choice of contact time period also is at the discretion of the investigator. Any contact time period can be chosen. […] The contact temperature also can be any temperature, typically room temperature, or about 25 degrees Celsius. The bacterial suspension, or test inoculum, is prepared by growing a bacterial culture on any appropriate solid media (e.g., agar). The bacterial population then is washed from the agar with sterile physiological saline and the population of the bacterial suspension is adjusted to about 10^8 colony forming units per ml (cfu/ml). The table below lists-the test bacterial cultures used in the following tests and includes the name of the bacteria, the ATCC (American Type Culture Collection) identification number, and the abbreviation for the name of the organism used hereafter. [table] The beaker containing the test composition is placed in a water bath (if constant temperature is desired), or placed on a magnetic stirrer (if ambient laboratory temperature is desired). The sample then is inoculated with 1.0 ml of the test bacteria suspension. The inoculum is stirred with the test composition for the predetermined contact time. […] Decimal dilutions to a countable range then are made. The dilutions can differ for different organisms. Plate selected dilutions in triplicate on TSA+ plates (TSA+ is Trypticase Soy Agar with Lecithin and Polysorbate 80). […] The control count (numbers control) is determined by conducting the procedure as described above with the exception that THT is used in place of the test composition. The plate counts are converted to cfu/ml for the numbers control and samples, respectively, by standard microbiological methods. The log reduction is calculated using the formula Log reduction=log10 (numbers control)−log10 (test sample survivors).

S. aureus = assay: Time kill test (rapid germicidal activity) against S. aureus; type: cell-based, Staphylococcus aureus; details: 2% active aqueous solution
Description: as §1

Lauramine oxide
log reduction after 30 seconds E. coli (E. coli; pH 4.93, 30 seconds): >5.32 log | log reduction after 30 seconds E. coli (E. coli; pH 5.50, 30 seconds): >4.70 log | log reduction after 30 seconds E. coli (E. coli; pH 6.02, 30 seconds): >4.70 log | log reduction after 30 seconds E. coli (E. coli; pH 6.5, 30 seconds): >4.70 log | log reduction after 30 seconds E. coli (E. coli; pH 7.0, 30 seconds): >5.32 log | log reduction after 30 seconds E. coli (E. coli; pH 7.53, 30 seconds): 0.88 log | log reduction after 30 seconds E. coli (E. coli; pH 8.94, 30 seconds): 0.27 log | log reduction after 30 seconds E. coli (E. coli; pH 10.14, 30 seconds): 0.11 log | log reduction after 30 seconds S. aureus (S. aureus; pH 4.93, 30 seconds): 2.11 log | log reduction after 30 seconds S. aureus (S. aureus; pH 5.50, 30 seconds): >4.38 log | log reduction after 30 seconds S. aureus (S. aureus; pH 6.02, 30 seconds): >4.39 log | log reduction after 30 seconds S. aureus (S. aureus; pH 6.5, 30 seconds): >4.39 log | log reduction after 30 seconds S. aureus (S. aureus; pH 7.0, 30 seconds): >4.39 log | log reduction after 30 seconds S. aureus (S. aureus; pH 7.53, 30 seconds): >4.39 log | log reduction after 30 seconds S. aureus (S. aureus; pH 8.94, 30 seconds): 4.33 log | log reduction after 30 seconds S. aureus (S. aureus; pH 10.14, 30 seconds): 3.75 log

— patent publication US6616922B2, “Antibacterial compositions” (The Dial Corporation, priority 2001, dated 2003)
